Measured values published in US20060069132A1, “Azolecarboxamide herbicides” (priority 2004, published 2006).

Assays:
[1] = tested on: barnyardgrass; experiment: Test B pre-/postemergence herbicide test; assay type: in vivo, Echinochloa crus-galli; settings: for Barnyardgrass plant response rating: postemergence
In short: (§1)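 Pre: seeds sown, then sprayed. Post: 1–4-leaf plants (2–18 cm) sprayed at the same time. Paddy: flooded, treated at 2-leaf stage. Formulation: non-phytotoxic solvent with surfactant. Greenhouse 13–15 days; visual 0–100 score relative to controls.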

[2] = tested on: Surinam grass; experiment: Test B pre-/postemergence herbicide test; assay type: in vivo, Urochloa decumbens; settings: for Surinam Grass plant response rating: postemergence
In short: (§2)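 Response was scored visually 13 to 15 days after treatment against untreated greenhouse controls, 0 meaning no effect and 100 complete control. Formulations (solvent mixture plus surfactant) went onto soil after planting, onto foliage of 1- to 4-leaf plants, and onto 2-leaf plants in a flooded paddy set including rice and barnyardgrass.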

[3] = tested on: cocklebur; experiment: Test B pre-/postemergence herbicide test; assay type: in vivo, Xanthium strumarium; settings: for Cocklebur plant response rating: postemergence
In short: as §1

[4] = tested on: corn; experiment: Test B pre-/postemergence herbicide test; assay type: in vivo, Zea mays; settings: for Corn plant response rating: postemergence
In short: as §2

[5] = tested on: large crabgrass; experiment: Test B pre-/postemergence herbicide test; assay type: in vivo, Digitaria sanguinalis; settings: for Crabgrass, Large plant response rating: postemergence
In short: as §2

[6] = tested on: giant foxtail; experiment: Test B pre-/postemergence herbicide test; assay type: in vivo, Setaria faberi; settings: for Foxtail, Giant plant response rating: postemergence
In short: as §2

[7] = tested on: lambsquarters; experiment: Test B pre-/postemergence herbicide test; assay type: in vivo, Chenopodium album; settings: for Lambsquarters plant response rating: postemergence
In short: as §2

[8] = tested on: morningglory; experiment: Test B pre-/postemergence herbicide test; assay type: in vivo, Ipomoea coccinea; settings: for Morningglory plant response rating: postemergence
In short: as §1

[9] = tested on: pigweed; experiment: Test B pre-/postemergence herbicide test; assay type: in vivo, Amaranthus retroflexus; settings: for Pigweed plant response rating: postemergence
In short: as §2

[10] = tested on: rice; experiment: Test B pre-/postemergence herbicide test; assay type: in vivo, Oryza sativa; settings: preemergence
In short: as §2

[11] = tested on: velvetleaf; experiment: Test B pre-/postemergence herbicide test; assay type: in vivo, Abutilon theophrasti; settings: for Velvetleaf plant response rating: postemergence
In short: as §2

[12] = tested on: blackgrass; experiment: Test B postemergence herbicide test; assay type: in vivo, Alopecurus myosuroides; settings: scale 0 (no effect) to 100 (complete control); for Blackgrass plant response rating: postemergence, visual rating
In short: (§3)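 Read-out: visual comparison with controls, scored 0 to 100, where 100 means complete control and 0 no effect. Formulated chemicals were applied postemergence to plants 2–18 cm tall (1- to 4-leaf), or to flooded-paddy plants at the 2-leaf stage, then held 13 to 15 days under glass.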

[13] = tested on: wheat; experiment: Test B postemergence herbicide test; assay type: in vivo, Triticum aestivum; parameters: key to Wheat plant response rating: 0 = no effect, 100 = complete control; settings: scale 0 (no effect) to 100 (complete control); for Wheat plant response rating: postemergence, visual rating
In short: (§4)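 Greenhouse test; postemergence application to plants at 1–4 leaves (2–18 cm); paddy species at 2 leaves; evaluated visually vs controls at 13–15 days; scale 0–100 (100 = complete control).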

[14] = tested on: wild oat; experiment: Test B postemergence herbicide test; assay type: in vivo, Avena fatua; settings: scale 0 (no effect) to 100 (complete control); for Oat, Wild plant response rating: postemergence, visual rating
In short: as §4

[15] = tested on: rice; experiment: Test B flooded paddy test; assay type: in vivo, Oryza sativa; settings: 1000 g ai/ha, visual rating, scale 0 to 100 (0 no effect, 100 complete control), 13 to 15 days
In short: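 Postemergence plants were sprayed with formulated test chemicals at 2 to 18 cm height (1- to 4-leaf stage); paddy species were grown to the 2-leaf stage. After 13 to 15 days in a greenhouse, injury was rated visually against untreated controls on a 0–100 scale (0 = no effect, 100 = complete control).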

[16] = tested on: small flower umbrella sedge; experiment: Test B flooded paddy test; assay type: in vivo, Cyperus difformis; settings: 1000 g ai/ha, visual rating, scale 0 to 100 (0 no effect, 100 complete control), 13 to 15 days
In short: as §3

[17] = tested on: ducksalad; experiment: Test B flooded paddy test; assay type: in vivo, Heteranthera limosa; settings: 1000 g ai/ha, visual rating, scale 0 to 100 (0 no effect, 100 complete control), 13 to 15 days
In short: as §3

[18] = tested on: barnyardgrass; experiment: Test B flooded paddy test; assay type: in vivo, Echinochloa crus-galli; settings: 1000 g ai/ha, visual rating, scale 0 to 100 (0 no effect, 100 complete control), 13 to 15 days
In short: as §3

[19] = 500 g ai/ha, visual rating 0-100, 0 no effect, 100 complete control, preemergence
[20] = Postemergence, 500 g ai/ha, visual rating after 13 to 15 days, scale 0 (no effect) to 100 (complete control)
[21] = 125 g ai/ha, visual rating, scale 0 (no effect) to 100 (complete control)
[22] = preemergence, 125 g ai/ha, 0 to 100 scale, 0 is no effect, 100 is complete control
[23] = Postemergence, 500 g ai/ha, visual rating after 13 to 15 days
[24] = 125 g ai/ha, 0 = no effect, 100 = complete control, preemergence
[25] = 500 g ai/ha, visual rating, scale 0 (no effect) to 100 (complete control)
[26] = 125 g ai/ha, 0 = no effect, 100 = complete control
[27] = 500 g ai/ha, visual rating, 0 = no effect, 100 = complete control, preemergence

CCCCn1nc(C(C)(C)C)cc1C(=O)Nc1cccc(C(C)=NO)c1 [Compound 119]
40: Plant response rating, Morningglory [8, 20]
30: Plant response rating, Corn [4, 20] | Plant response rating, Pigweed [9, 20]
60: Plant response rating, Cocklebur [3, 20] | Plant response rating, Lambsquarters [7, 20]
50: Plant response rating, Velvetleaf [11, 20]
10: Plant response rating, Barnyardgrass [1, 19] | Plant response rating, Barnyardgrass [1, 20] | Plant response rating, Surinam Grass [2, 19] | Plant response rating, Surinam Grass [2, 20] | Surinam Grass plant response rating [2, 21] | Corn plant response rating [4, 21] | Plant response rating, Foxtail, Giant [6, 20] | Foxtail, Giant plant response rating [6, 21] | Plant response rating, Morningglory [8, 19] | Plant response rating, Velvetleaf [11, 19] | Plant response rating, Blackgrass [12, 23] | Oat, Wild plant response rating ([14]; 125 g ai/ha)
0: Barnyardgrass plant response rating [1, 21] | Plant response rating, Barnyardgrass [1, 22] | Plant response rating, Surinam Grass [2, 22] | Plant response rating, Cocklebur [3, 19] | Cocklebur plant response rating [3, 21] | Plant response rating, Cocklebur [3, 22] | Plant response rating, Corn [4, 19] | Plant response rating, Corn [4, 22] | Plant response rating, Foxtail, Giant [6, 19] | Plant response rating, Foxtail, Giant [6, 22] | Plant response rating, Lambsquarters [7, 19] | Lambsquarters plant response rating [7, 21] | Plant response rating, Lambsquarters [7, 22] | Morningglory plant response rating [8, 21] | Plant response rating, Morningglory [8, 22] | Plant response rating, Pigweed [9, 19] | Pigweed plant response rating [9, 21] | Plant response rating, Pigweed [9, 22] | Plant response rating, Rice ([10]; 125 g ai/ha, 0 to 100 scale, 0 is no effect, 100 is complete control) | Velvetleaf plant response rating [11, 21] | Plant response rating, Velvetleaf [11, 22] | Blackgrass plant response rating ([12]; 125 g ai/ha) | Plant response rating, Wheat [13, 23] | Wheat plant response rating ([13]; 125 g ai/ha) | Rice plant response rating [15] | Sedge, Umbrella plant response rating [16] | Ducksalad plant response rating [17] | Barnyardgrass plant response rating [18]
20: Plant response rating, Crabgrass, Large [5, 20] | Crabgrass, Large plant response rating [5, 21] | Plant response rating, Crabgrass, Large [5, 22] | Plant response rating, Oat, Wild [14, 23]
80: Plant response rating, Crabgrass, Large [5, 19]

CCN(CC)C(=O)c1cccc(NC(=O)c2nn(C(C)(C)C)cc2C(F)(F)F)c1 [Compound 169]
100: Plant response rating, Pigweed [9, 19]
40: Plant response rating, Crabgrass, Large [5, 19] | Lambsquarters plant response rating [7, 21] | Pigweed plant response rating [9, 25]
0: Barnyardgrass plant response rating (0 to 100 scale) [1, 24] | Barnyardgrass plant response rating [1, 21] | Surinam Grass plant response rating (0 to 100 scale) [2, 24] | Surinam Grass plant response rating [2, 21] | Cocklebur plant response rating (0 to 100 scale) [3, 24] | Plant response rating, Cocklebur [3, 19] | Cocklebur plant response rating [3, 21] | Cocklebur plant response rating [3, 25] | Corn plant response rating (0 to 100 scale) [4, 24] | Plant response rating, Corn [4, 19] | Crabgrass, Large plant response rating (0 to 100 scale) [5, 24] | Foxtail, Giant plant response rating (0 to 100 scale) [6, 24] | Foxtail, Giant plant response rating [6, 21] | Foxtail, Giant plant response rating [6, 25] | Lambsquarters plant response rating (0 to 100 scale) [7, 24] | Morningglory plant response rating (0 to 100 scale) [8, 24] | Pigweed plant response rating (0 to 100 scale) [9, 24] | Rice plant response rating (0 to 100 scale) [10, 26] | Plant response rating, Rice ([10]; 500 g ai/ha, visual rating 0-100, 0 no effect, 100 complete control) | Velvetleaf plant response rating (0 to 100 scale) [11, 24] | Plant response rating, Velvetleaf [11, 19] | Velvetleaf plant response rating [11, 21] | Velvetleaf plant response rating [11, 25] | Blackgrass plant response rating ([12]; 125 g ai/ha) | Wheat plant response rating ([13]; 125 g ai/ha) | Wheat plant response rating ([13]; 500 g ai/ha) | Rice plant response rating [15] | Sedge, Umbrella plant response rating [16] | Ducksalad plant response rating [17] | Barnyardgrass plant response rating [18]
10: Plant response rating, Barnyardgrass [1, 19] | Barnyardgrass plant response rating [1, 25] | Plant response rating, Surinam Grass [2, 19] | Surinam Grass plant response rating [2, 25] | Corn plant response rating [4, 21] | Corn plant response rating [4, 25] | Crabgrass, Large plant response rating [5, 21] | Crabgrass, Large plant response rating [5, 25] | Plant response rating, Foxtail, Giant [6, 19] | Plant response rating, Morningglory [8, 19] | Blackgrass plant response rating ([12]; 500 g ai/ha) | Oat, Wild plant response rating ([14]; 125 g ai/ha) | Oat, Wild plant response rating ([14]; 500 g ai/ha)
60: Plant response rating, Lambsquarters [7, 19] | Lambsquarters plant response rating [7, 25]
70: Morningglory plant response rating [8, 25]
20: Morningglory plant response rating [8, 21] | Pigweed plant response rating [9, 21]

CCN(CC)C(=O)c1cccc(NC(=O)c2nn(C(C)(C)C)cc2Br)c1 [Compound 220]
0: Barnyardgrass plant response rating (0 to 100 scale) [1, 24] | Plant response rating, Barnyardgrass [1, 27] | Barnyardgrass plant response rating [1, 21] | Barnyardgrass plant response rating [1, 25] | Surinam Grass plant response rating (0 to 100 scale) [2, 24] | Surinam Grass plant response rating [2, 21] | Cocklebur plant response rating (0 to 100 scale) [3, 24] | Plant response rating, Cocklebur [3, 27] | Cocklebur plant response rating [3, 21] | Corn plant response rating (0 to 100 scale) [4, 24] | Plant response rating, Corn [4, 27] | Foxtail, Giant plant response rating (0 to 100 scale) [6, 24] | Foxtail, Giant plant response rating [6, 21] | Lambsquarters plant response rating (0 to 100 scale) [7, 24] | Morningglory plant response rating (0 to 100 scale) [8, 24] | Plant response rating, Morningglory [8, 27] | Morningglory plant response rating [8, 21] | Morningglory plant response rating [8, 25] | Pigweed plant response rating (0 to 100 scale) [9, 24] | Rice plant response rating (0 to 100 scale) [10, 26] | Plant response rating, Rice ([10]; 500 g ai/ha, visual rating, 0 = no effect, 100 = complete control) | Velvetleaf plant response rating (0 to 100 scale) [11, 24] | Plant response rating, Velvetleaf [11, 27] | Velvetleaf plant response rating [11, 21] | Velvetleaf plant response rating [11, 25] | Blackgrass plant response rating ([12]; 125 g ai/ha) | Blackgrass plant response rating ([12]; 500 g ai/ha) | Wheat plant response rating ([13]; 125 g ai/ha) | Wheat plant response rating ([13]; 500 g ai/ha) | Oat, Wild plant response rating ([14]; 125 g ai/ha) | Rice plant response rating [15] | Barnyardgrass plant response rating [18]
100: Plant response rating, Crabgrass, Large [5, 27] | Plant response rating, Pigweed [9, 27]
20: Crabgrass, Large plant response rating (0 to 100 scale) [5, 24] | Lambsquarters plant response rating [7, 25]
40: Ducksalad plant response rating [17]
70: Plant response rating, Lambsquarters [7, 27]
80: Sedge, Umbrella plant response rating [16]
10: Plant response rating, Surinam Grass [2, 27] | Surinam Grass plant response rating [2, 25] | Cocklebur plant response rating [3, 25] | Corn plant response rating [4, 21] | Corn plant response rating [4, 25] | Crabgrass, Large plant response rating [5, 21] | Crabgrass, Large plant response rating [5, 25] | Plant response rating, Foxtail, Giant [6, 27] | Foxtail, Giant plant response rating [6, 25] | Lambsquarters plant response rating [7, 21] | Pigweed plant response rating [9, 21] | Pigweed plant response rating [9, 25] | Oat, Wild plant response rating ([14]; 500 g ai/ha)
